Experimental data published in ChEMBL document CHEMBL4732228, “The total synthesis of berberine and selected analogues, and their evaluation as amyloid beta aggregation inhibitors” (Eur J Med Chem, 2021).
Converted amounts (≈) assume the structure as drawn. The source made the active and inactive calls. The rule behind the calls is not given here.

What was measured:
[1] = Water solubility of the compound at 1 mg incubated for 12 hrs under shaking condition by UV-HPLC analysis; assay type: physicochemical
[2] = Cytotoxicity against rat PC12 cells assessed as reduction in cell viability incubated for 24 hrs by WST-8 assay; assay type: cell-based, PC-12
[3] = biological target: Amyloid-beta precursor protein (Homo sapiens) (UniProt P05067); test: Inhibition of amyloid beta (1 to 42 ) (unknown origin) aggregation at 10 uM after 20 hrs by thioflavin-T fluorescence method relative to control
[4] = biological target: Amyloid-beta precursor protein (Homo sapiens) (UniProt P05067); test: Inhibition of amyloid beta (1 to 42 ) (unknown origin) aggregation assessed as decrease in diameter of aggregate after 20 hrs by dynamic light scattering analysis (reference value: 4.6 micrometer)
[5] = biological target: Amyloid-beta precursor protein (Homo sapiens) (UniProt P05067); test: Inhibition of amyloid beta (1 to 42 ) (unknown origin) aggregation assessed as decrease in size of amyloid beta fibrils after 20 hrs by TEM analysis (reference value: 1 micrometer)
[6] = biological target: Amyloid-beta precursor protein (Homo sapiens) (UniProt P05067); test: Inhibition of amyloid beta (1 to 42 ) (unknown origin) aggregation assessed as appearance of nano-rod like amyloid beta fragments after 20 hrs by CD spectroscopic method
[7] = Ratio of compound solubility to curcumin solubility in water after 12 hrs by UV-HPLC analysis; assay type: physicochemical; conditions: buffer

Sequence of Amyloid-beta precursor protein (Homo sapiens) (P05067 whole entry, the tested form may be a part): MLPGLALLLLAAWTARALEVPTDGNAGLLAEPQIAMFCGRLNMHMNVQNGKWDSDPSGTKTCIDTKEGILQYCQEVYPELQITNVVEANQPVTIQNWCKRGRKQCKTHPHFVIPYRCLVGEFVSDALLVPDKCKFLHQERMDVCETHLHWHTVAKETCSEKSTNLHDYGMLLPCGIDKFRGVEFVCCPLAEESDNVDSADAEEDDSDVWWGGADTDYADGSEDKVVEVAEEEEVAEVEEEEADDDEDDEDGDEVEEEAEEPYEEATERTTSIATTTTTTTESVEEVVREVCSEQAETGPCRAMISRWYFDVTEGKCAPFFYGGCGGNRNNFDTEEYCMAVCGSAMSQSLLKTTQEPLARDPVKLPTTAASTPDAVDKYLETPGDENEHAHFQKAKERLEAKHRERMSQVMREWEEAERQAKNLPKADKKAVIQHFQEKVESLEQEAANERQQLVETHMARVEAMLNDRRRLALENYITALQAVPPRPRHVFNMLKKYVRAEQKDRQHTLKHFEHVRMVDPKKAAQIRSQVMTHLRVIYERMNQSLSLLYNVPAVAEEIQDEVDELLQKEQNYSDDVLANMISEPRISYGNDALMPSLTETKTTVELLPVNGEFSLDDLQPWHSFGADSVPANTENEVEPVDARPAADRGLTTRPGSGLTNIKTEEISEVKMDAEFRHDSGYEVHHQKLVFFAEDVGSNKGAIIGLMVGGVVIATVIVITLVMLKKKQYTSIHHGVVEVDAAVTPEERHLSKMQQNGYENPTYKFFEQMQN

Structure (SMILES)	solubility thermodynamic at 12 h [1]	inhibition [3]	Ratio [7]	CC50 at 24 h [2]	Activity [4]	Activity [5]	inhibition [6]
COc1ccc2cc[nH]c(=O)c2c1OC	5.2 µM (≈ 1.07 µg/mL)			129 µM			
COc1ccc2cc3n(c(=O)c2c1OC)CCc1cc2c(cc1-3)OCO2 [OXYBERBERINE]				137 µM			
O=C1C=C(c2ccc(O)c(O)c2)OC(c2cc(O)ccc2O)C1 (configuration not stated)	2340 µM (≈ 735 µg/mL)	100%		114 µM			
Oc1cc2c(cc1O)C1Cc3ccc(O)c(O)c3CN1CC2 (configuration not stated)	> 3340 µM	78%		114 µM	1.3 nm	50 nm	Active
COc1ccc2c(c1OC)CN1CCc3cc4c(cc3C1C2)OCO4 (configuration not stated) [TETRAHYDROBERBERINE]	7 µM (≈ 2.38 µg/mL)			> 150 µM			
CCOC(CNC(=O)c1cccc(OC)c1OC)OCC	26 µM (≈ 7.73 µg/mL)			> 150 µM			
COc1cc(/C=C/C(=O)CC(=O)/C=C/c2ccc(O)c(OC)c2)ccc1O [CURCUMIN]				44 µM			
COc1ccc2ccn(CCc3cc4c(cc3Br)OCO4)c(=O)c2c1OC	15 µM (≈ 6.48 µg/mL)			132 µM			
COc1c(O)ccc2c1CN1CCc3cc(O)c(O)cc3C1C2 (configuration not stated)	2370 µM (≈ 743 µg/mL)	61%		91 µM			

Continued, in another order:

solubility thermodynamic at 12 h [1]	inhibition [3]	Ratio [7]	Structure (SMILES)	CC50 at 24 h [2]	Activity [4]	Activity [5]	inhibition [6]
2750 µM	27%		COc1ccc2cc3[n+](cc2c1OC)CCc1cc(O)c(O)cc1-3.[Cl-]	> 150 µM			
1500 µM	39%		COc1c(O)ccc2cc3[n+](cc12)CCc1cc(O)c(O)cc1-3.[Cl-]	39 µM			
1780 µM	32%	9000	COc1ccc2cc3[n+](cc2c1OC)CCc1cc2c(cc1-3)OCO2.[Cl-] [BERBERINE CHLORIDE]	> 150 µM			
2450 µM	72%		Oc1cc2c(cc1O)-c1cc3ccc(O)c(O)c3c[n+]1CC2.[Cl-]	9.8 µM		50 nm	Active
